The source made the active and inactive calls. The calls are words filed in the database; no cut-off is given here.
Legend:
[1] = test system: HT-1080; assay: Antiinvasive activity in human HT1080 cells at 60 ug/ml after 48 hrs; format: functional, cell-based
[2] = molecular target: Matrix metalloproteinase-9 (Homo sapiens) (UniProt P14780); assay: Inhibition of MMP9 gelatinolytic activity in phorbol myristate acetate-stimulated human HT1080 cells at 60 ug/ml by gelatin zymography relative to control; format: cell-based; conditions: HT-1080
[3] = molecular target: 72 kDa type IV collagenase (Homo sapiens) (UniProt P08253); assay: Inhibition of MMP2 gelatinolytic activity in phorbol myristate acetate-stimulated human HT1080 cells at 60 ug/ml by gelatin zymography relative to control; format: cell-based; conditions: HT-1080
[4] = test system: HT-1080; assay: Inhibition of p38 expression in phorbol myristate acetate-stimulated human HT1080 cells at 60 ug/ml by Western blotting relative to control; format: functional, cell-based
[5] = molecular target: Matrix metalloproteinase-9 (Homo sapiens) (UniProt P14780); assay: Reduction of gelatinolytic activity of MMP9 in phorbol myristate acetate-stimulated human HT1080 cells at 40 and 60 ug/ml; format: cell-based; conditions: HT-1080
[6] = test system: HT-1080; assay: Inhibition of cell migration in human HT1080 cells at 60 ug/ml; format: functional
[7] = test system: HT-1080; assay: Inhibition of JNK expression in phorbol myristate acetate-stimulated human HT1080 cells at 60 ug/ml by Western blotting relative to control; format: functional, cell-based
[8] = molecular target: Transcription factor Jun (Homo sapiens) (UniProt P05412); assay: Inhibition of AP1 gene promoter activity in phorbol myristate acetate-stimulated human HT1080 cells at 60 ug/ml by luciferase reporter gene assay; format: cell-based; conditions: HT-1080
[9] = test system: HT-1080; assay: Suppression of MMP9 expression in phorbol myristate acetate-stimulated human HT1080 cells by Western blotting relative to control; format: functional, cell-based
[10] = test system: HT-1080; assay: Suppression of TIMP1 expression in phorbol myristate acetate-stimulated human HT1080 cells by Western blotting relative to control; format: functional, cell-based
[11] = molecular target: 72 kDa type IV collagenase (Homo sapiens) (UniProt P08253); assay: Inhibition of MMP2 gene promoter activity in phorbol myristate acetate-stimulated human HT1080 cells at 60 ug/ml by luciferase reporter gene assay relative to control; format: cell-based; conditions: HT-1080
[12] = test system: HT-1080; assay: Cytotoxicity against human HT1080 cells assessed as cell viability at upto 60 ug/ml; format: cell-based
[13] = molecular target: 72 kDa type IV collagenase (Homo sapiens) (UniProt P08253); assay: Inhibition of MMP2 gene promoter activity in phorbol myristate acetate-stimulated human HT1080 cells by luciferase reporter gene assay; format: cell-based; conditions: HT-1080
[14] = molecular target: 72 kDa type IV collagenase (Homo sapiens) (UniProt P08253); assay: Inhibition of MMP2 gelatinolytic activity in human HT1080 cells at upto 60 ug/ml by gelatin zymography relative to control; format: cell-based; conditions: HT-1080
[15] = molecular target: Matrix metalloproteinase-9 (Homo sapiens) (UniProt P14780); assay: Inhibition of MMP9 in phorbol myristate acetate-stimulated human HT1080 cells by gelatin zymography relative to control; format: cell-based; conditions: HT-1080
[16] = molecular target: 72 kDa type IV collagenase (Homo sapiens) (UniProt P08253); assay: Inhibition of MMP2 in phorbol myristate acetate-stimulated human HT1080 cells by gelatin zymography relative to control; format: cell-based; conditions: HT-1080
[17] = molecular target: Matrix metalloproteinase-9 (Homo sapiens) (UniProt P14780); assay: Inhibition of MMP9 gene promoter activity in phorbol myristate acetate-stimulated human HT1080 cells by luciferase reporter gene assay; format: cell-based; conditions: HT-1080
[18] = test system: HT-1080; assay: Suppression of AP1 c-FOS subunit expression in phorbol myristate acetate-stimulated human HT1080 cell cytoplasm by Western blotting relative to control; format: functional, cell-based
[19] = test system: HT-1080; assay: Suppression of MMP2 expression in phorbol myristate acetate-stimulated human HT1080 cells by Western blotting relative to control; format: functional, cell-based
[20] = molecular target: Matrix metalloproteinase-9 (Homo sapiens) (UniProt P14780); assay: Inhibition of MMP9 gene promoter activity in phorbol myristate acetate-stimulated human HT1080 cells at 60 ug/ml by luciferase reporter gene assay relative to control; format: cell-based; conditions: HT-1080
[21] = test system: HT-1080; assay: Suppression of TIMP2 expression in phorbol myristate acetate-stimulated human HT1080 cells by Western blotting relative to control; format: functional, cell-based
[22] = test system: HT-1080; assay: Suppression of NF-kappaB p65 subunit expression in phorbol myristate acetate-stimulated human HT1080 cell nucleus by Western blotting relative to control; format: functional, cell-based
[23] = molecular target: Matrix metalloproteinase-9 (Homo sapiens) (UniProt P14780); assay: Inhibition of MMP9 gelatinolytic activity in human HT1080 cells at upto 60 ug/ml by gelatin zymography relative to control; format: cell-based; conditions: HT-1080
[24] = test system: HT-1080; assay: Suppression of NF-kappaB p65 subunit expression in phorbol myristate acetate-stimulated human HT1080 cell cytoplasm by Western blotting relative to control; format: functional, cell-based
[25] = test system: HT-1080; assay: Inhibition of NF-kappaB gene promoter activity in phorbol myristate acetate-stimulated human HT1080 cells at 60 ug/ml by luciferase reporter gene assay; format: cell-based
[26] = test system: HT-1080; assay: Inhibition of ERK expression in phorbol myristate acetate-stimulated human HT1080 cells at 60 ug/ml by Western blotting relative to control; format: functional; set-up: scale not given: the % may be the effect or the level left
[27] = test system: HT-1080; assay: Antiinvasive activity in human HT1080 cells at 20 ug/ml after 48 hrs; format: functional
[28] = test system: HT-1080; assay: Suppression of AP1 c-FOS subunit expression in phorbol myristate acetate-stimulated human HT1080 cell nucleus by Western blotting relative to control; format: functional, cell-based
[29] = molecular target: 72 kDa type IV collagenase (Homo sapiens) (UniProt P08253); assay: Reduction of gelatinolytic activity of MMP2 in phorbol myristate acetate-stimulated human HT1080 cells at 40 and 60 ug/ml; format: cell-based; conditions: HT-1080

Sequence of 72 kDa type IV collagenase (Homo sapiens) (P08253 110-660 limits assumed): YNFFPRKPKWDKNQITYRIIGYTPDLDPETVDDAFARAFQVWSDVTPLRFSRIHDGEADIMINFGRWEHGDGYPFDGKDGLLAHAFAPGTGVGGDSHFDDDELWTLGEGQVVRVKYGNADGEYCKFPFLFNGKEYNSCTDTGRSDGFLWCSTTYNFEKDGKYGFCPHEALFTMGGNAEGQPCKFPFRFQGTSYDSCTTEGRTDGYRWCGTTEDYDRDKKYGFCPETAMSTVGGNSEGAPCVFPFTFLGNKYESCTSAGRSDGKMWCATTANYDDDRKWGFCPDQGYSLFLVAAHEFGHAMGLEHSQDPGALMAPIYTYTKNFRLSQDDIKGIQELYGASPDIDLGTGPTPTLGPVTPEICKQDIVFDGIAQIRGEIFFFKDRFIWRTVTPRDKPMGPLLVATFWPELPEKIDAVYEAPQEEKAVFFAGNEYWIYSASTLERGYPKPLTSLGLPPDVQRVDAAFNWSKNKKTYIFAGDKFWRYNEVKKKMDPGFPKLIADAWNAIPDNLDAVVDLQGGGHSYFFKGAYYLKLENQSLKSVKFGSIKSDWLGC
Sequence of Matrix metalloproteinase-9 (Homo sapiens) (P14780 whole entry): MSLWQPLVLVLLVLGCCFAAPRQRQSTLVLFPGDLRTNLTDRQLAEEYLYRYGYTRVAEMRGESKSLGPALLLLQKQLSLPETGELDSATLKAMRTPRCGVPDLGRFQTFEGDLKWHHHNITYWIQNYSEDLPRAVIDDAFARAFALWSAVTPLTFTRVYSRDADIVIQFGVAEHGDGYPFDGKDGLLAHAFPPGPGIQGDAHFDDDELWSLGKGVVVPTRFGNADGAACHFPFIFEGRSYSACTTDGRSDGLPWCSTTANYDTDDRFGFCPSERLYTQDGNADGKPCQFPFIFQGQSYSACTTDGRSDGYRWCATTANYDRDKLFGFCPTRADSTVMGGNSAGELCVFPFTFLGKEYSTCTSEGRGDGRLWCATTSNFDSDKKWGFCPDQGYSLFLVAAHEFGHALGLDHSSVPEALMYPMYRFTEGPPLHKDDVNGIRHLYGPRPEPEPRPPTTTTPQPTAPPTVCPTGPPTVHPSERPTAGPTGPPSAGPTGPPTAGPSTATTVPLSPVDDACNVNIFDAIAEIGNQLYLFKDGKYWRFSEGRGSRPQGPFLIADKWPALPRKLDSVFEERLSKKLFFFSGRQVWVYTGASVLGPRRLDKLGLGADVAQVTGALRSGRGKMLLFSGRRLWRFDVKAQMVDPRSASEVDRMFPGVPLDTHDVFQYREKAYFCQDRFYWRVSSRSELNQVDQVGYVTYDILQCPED
Sequence of Transcription factor Jun (Homo sapiens) (P05412 whole entry): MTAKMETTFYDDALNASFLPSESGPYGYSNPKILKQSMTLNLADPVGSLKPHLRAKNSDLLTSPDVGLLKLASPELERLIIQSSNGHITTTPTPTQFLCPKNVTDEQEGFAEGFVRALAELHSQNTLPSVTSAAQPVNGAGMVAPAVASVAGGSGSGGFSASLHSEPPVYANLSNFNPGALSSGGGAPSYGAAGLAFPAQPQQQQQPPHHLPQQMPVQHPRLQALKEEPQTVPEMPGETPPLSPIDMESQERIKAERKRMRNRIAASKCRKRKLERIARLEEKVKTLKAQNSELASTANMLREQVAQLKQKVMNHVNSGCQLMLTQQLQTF

What does the source list for `N[C@H]1C(O)O[C@H](CO)[C@@H](O)[C@@H]1O` (stereo partly drawn)?
Activity [1]: inactive; inhibition [2]: inactive; inhibition [3]: inactive

Which results are given for `C[N+](C)(C)CC(O)CN[C@@H]1[C@@H](O)[C@H](O)[C@@H](CO)O[C@H]1O` (stereo partly drawn)?
inhibition [4]: Active; Activity [5]: Active; inhibition at 60 µg/mL [6]: 70%; inhibition [7]: Active; inhibition [8]: 60%; Activity [9]: Dose-dependent effect; Activity [10]: inactive; fold change (FC) [11]: 3; Activity [12]: Non-toxic; inhibition [13]: Dose-dependent effect; inhibition [14]: inactive; inhibition [15]: Active; inhibition [16]: Active; inhibition [17]: Dose-dependent effect; Activity [18]: Active; Activity [19]: Dose-dependent effect; fold change (FC) [20]: 3; Activity [21]: inactive; Activity [22]: Active; inhibition [23]: inactive; Activity [24]: Active; inhibition [25]: 65%; Activity [26]: 60%; inhibition [2]: 50%; Activity [27]: 50%; Activity [28]: Active; inhibition [3]: 62%; Activity [29]: Active

Which results are given for `C[C@H]1c2cccc(O)c2C(=O)C2=C(O)[C@]3(O)C(=O)C(C(N)=O)=C(O)[C@@H](N(C)C)[C@@H]3[C@@H](O)[C@@H]21`?
inhibition [14]: inactive; inhibition [23]: inactive

From ChEMBL document CHEMBL1152915, “The inhibitory mechanism of a novel cationic glucosamine derivative against MMP-2 and MMP-9 expressions” (Bioorg Med Chem Lett, 2009)
